Source: article PMC10819430, “Binding Affinity and Mechanism of Six PFAS with Human Serum Albumin: Insights from Multi-Spectroscopy, DFT and Molecular Dynamics Approaches” (Toxics, 2024)

Columns and labels:
[1] = target: T1, HSA (Homo sapiens, UniProt P02768); assay: 3D-EEM fluorescence spectra of HSA–PFAS; details: HSA 1 × 10^−6, PFAS 1.8 × 10^−5 mol·L^−1
T1 construct: HSA (≥96%) and six PFAS were all purchased from Aladdin Chemicals (Shanghai, China); purchased Aladdin Chemicals (Shanghai, China)
Procedure: The 3D-EEM spectra were recorded using specific scanning parameters at the scanning rate of 2400 nm·min^−1, an […] with 5 nm increments, and an emission of 280–550 nm with 2 nm increments. The concentrations of PFAS and HSA were set at 18 × 10^−6 mol·L^−1 and 1 × 10^−6 mol·L^−1, respectively.

[2] = target: T2, Human Serum Albumin (HSA) (Homo sapiens, UniProt P02768); assay: Fluorescence quenching of HSA by PFAS (Stern–Volmer, double logarithmic and Van't Hoff analysis); assay type: binding; details: for Kq (quenching rate constant): τ0 taken as 10^−8 s
T2 construct: HSA (≥96%) and six PFAS were all purchased from Aladdin Chemicals (Shanghai, China); purchased Aladdin Chemicals (Shanghai, China)
Procedure: Fluorescence quenching experiments greatly benefit studies on the interactions between ligands and proteins. Initially, 3 mL of HSA stock solution was put into a 10 mm square quartz cuvette. Following that, PFAS stock solution was gradually added to achieve various final concentrations, namely 0, 3, 6, 9, 12, 15, 18 × 10^−6 mol·L^−1. By incrementally increasing the molar ratio of PFAS vs. HSA up to 18, their binding characteristics can be better investigated.
A thermostat (TR-01A, Bishui Corp, Beijing, China) was used to precisely control the solution temperature, which was set at 298, 304, and 310 K. This device includes a temperature controller and a metal heating cuvette module in conjunction with a fluorometer. This thermostat has a temperature range of 20–60 °C (293–333 K) and an accuracy of 0.1 °C Celsius. This step is critical for keeping the experimental conditions stable. Following that, the samples were fluorescence-scanned with a fluorometer (Cary Eclipse, Agilent, CA, USA). The excitation wavelength was set at 275 nm to efficiently stimulate tryptophan (Trp) and tyrosine (Tyr) residues. Additional test parameters include an emission of 275–500 nm, scanning rate of 1200 nm/min and PTV voltage of 700 v. Fluorescence quenching experiments were repeated three times, and the average values were taken for further calculation.
Fluorescence internal filtration (IFE) refers to the phenomenon where the fluorescence intensity decreases during fluorescence measurement due to the absorption of excitation or emission light by sample components (small molecules or proteins) in solution [19, 20]. This phenomenon is more obvious in the samples with a high concentration of adsorbent. A fluorescence correction formula was used in this study to correct the IFE effect on the data, as follows: Fcorr=Fobs×10^Aex+Aem/2 where Fcorr and Fobs are corrected and observed fluorescence emission intensities, respectively, Aex and Aem are UV-vis absorbances at the excitation and emission wavelengths.
The quenching constant can be calculated using the Stern–Volmer Equation (3). The results are shown in Table 2 and Figure 1: F0/F=1+Kqτ0=1+KsvQ where F0 and F refer to HSA fluorescence intensities without and with the quencher (PFAS solution); Kq is the biomacromolecule’s quenching rate constant; τ0 is the average fluorescence lifetime of the fluorescent molecule when the quencher PFAS is absent, usually taken as 10^−8 s; [Q] is the PFAS concentration; Ksv is the Stern–Volmer quenching constant; F0/F is the vertical axis; the Stern–Volmer curves of this system are 298, 304, and 310 K.
The double logarithmic formula can be used to calculate the binding constants and binding site numbers of HSA–PFAS complexes: logF0−F/F=logKb+nlogQ where F0 and F are parameters representing the initial fluorescence intensity and the fluorescence intensity after adding PFAS, respectively. The binding characteristics are represented by the binding constant, Kb, and the number of binding sites, n. The slope of the straight line is the number of binding sites, n, and the binding constant Kb is obtained from the exponent of the straight line’s intercept using the double logarithmic graph. Figure A2 and Table 2 show the calculation results.
The enthalpy change (∆H), entropy change (∆S), and free energy change (∆G) calculated from the Van’t Hoff equation [50] can be used to determine the type of interaction. lnKb=−ΔH/RT+ΔS/R ΔG=ΔH−TΔS=−RTlnKb where R represents the ideal gas constant (8.314 J·mol^−1·K^−1).

[3] = target: T1, HSA; assay: Competitive probe experiment (warfarin, ibuprofen, lidocaine); assay type: binding
Description: Competitive probe experiments are commonly used to identify specific binding sites in the structure of proteins. Three probe molecules known to bind to distinct binding sites on HSA were selected: warfarin (subdomain IIA), ibuprofen (subdomain IIIA), and lidocaine (subdomain IIB). These probe molecules would compete with PFAS for the same protein sites when binding with HSA. The potential binding sites can be inferred by monitoring and comparing changes in fluorescence intensity when probe molecules are present.

[4] = target: T1, HSA; assay: Circular dichroism (CD) spectrum, secondary structure of HSA; details: HSA:PFAS 1:18, 298 K
Description: CD measurements (190–260 nm) were taken before and after the addition of PFAS to HSA using a J-815 CD spectrometer equipped with a PMT detector (JASCO, Tokyo, Japan). The protein concentration was set at 1 × 10^−6 mol/L, with a fixed HSA-to-PFAS concentration ratio of 1:18. The scanning rate was set to 100 nm/min with 0.5 nm increments, and the photometric mode of HT. Each sample was scanned three times. The blank buffer control was automatically subtracted during the scanning process. All tests were carried out at 298 K. The CONTIN analysis method from the DichroWeb was employed to determine the contents of the protein’s secondary structure.

T2 sequence (P02768 25-609): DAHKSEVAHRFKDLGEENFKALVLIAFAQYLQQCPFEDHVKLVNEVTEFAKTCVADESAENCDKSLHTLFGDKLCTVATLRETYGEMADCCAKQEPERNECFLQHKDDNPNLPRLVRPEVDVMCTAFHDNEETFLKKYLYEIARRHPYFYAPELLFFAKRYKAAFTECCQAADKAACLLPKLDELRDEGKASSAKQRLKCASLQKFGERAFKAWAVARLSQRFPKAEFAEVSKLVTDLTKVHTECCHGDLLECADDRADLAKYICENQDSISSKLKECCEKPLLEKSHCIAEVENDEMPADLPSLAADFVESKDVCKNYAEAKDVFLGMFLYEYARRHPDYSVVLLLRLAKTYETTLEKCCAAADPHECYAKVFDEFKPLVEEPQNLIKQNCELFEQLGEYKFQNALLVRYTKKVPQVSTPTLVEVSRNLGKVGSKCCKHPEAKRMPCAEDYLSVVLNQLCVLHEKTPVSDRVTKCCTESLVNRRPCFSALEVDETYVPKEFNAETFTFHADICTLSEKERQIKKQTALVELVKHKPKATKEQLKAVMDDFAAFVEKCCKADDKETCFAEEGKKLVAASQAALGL
T1 sequence (P02768 25-609): as above

## O=C(O)C(F)(F)C(F)(F)C(F)(F)C(F)(F)C(F)(F)C(F)(F)C(=O)O [DFSA, Dodecafluorosuberic Acid]
[1]
  3D-EEM Peak A Position λex/λem: 280/336
  3D-EEM Peak B Position λex/λem: 230/330
[1]; HSA alone 673.66
  3D-EEM Peak A Intensity F: 629.75 a.u.
[1]; HSA alone 996.906
  3D-EEM Peak B Intensity F: 839.38 a.u.
[2]
  fluorescence quenching mechanism: static quenching
[2]; PFAS 1.8 × 10^−5 mol·L^−1, HSA 1 × 10^−6 mol·L^−1, 298 K
  quenching of HSA fluorescence intensity: 9.7%
[2]; T = 298 K
  KSV (Stern–Volmer quenching constant): 0.58 ± 0.06 × 10^4 L·mol^−1
  n (number of binding sites): 0.88 ± 0.02
  ΔG: -18.15 kJ/mol
  Kq (quenching rate constant): 0.58 ± 0.06 × 10^12 L·mol^−1·s^−1
[2]; T = 304 K
  KSV (Stern–Volmer quenching constant): 0.51 ± 0.04 × 10^4 L·mol^−1
  n (number of binding sites): 0.98 ± 0.05
  ΔG: -21.49 kJ/mol
  Kq (quenching rate constant): 0.51 ± 0.04 × 10^12 L·mol^−1·s^−1
[2]; T = 310 K
  KSV (Stern–Volmer quenching constant): 0.45 ± 0.05 × 10^4 L·mol^−1
  n (number of binding sites): 1.13 ± 0.07
  ΔG: -25.62 kJ/mol
  Kq (quenching rate constant): 0.45 ± 0.05 × 10^12 L·mol^−1·s^−1
[2]; Van't Hoff, 298–310 K
  ΔH: 167.49 ± 4.28 kJ/mol
  ΔS: 622.5 ± 15.3 J·mol^−1·K^−1
[2]; fluorescence quenching experiments
  affinity for HSA: low affinity
[2]; signs of ΔH and ΔS
  main interaction force from thermodynamic analysis: hydrophobic interactions
[3]; ibuprofen probe
  φ (rate of decrease in Kb): 25.4%
[3]; lidocaine probe
  φ (rate of decrease in Kb): 31.7%
[3]; warfarin probe
  φ (rate of decrease in Kb): 93.3%
[4]; HSA alone 4.9
  HSA secondary structure: β-Sheet: 4.0%
[4]; HSA alone 16.9
  HSA secondary structure: β-Turn: 15.8%
[4]; HSA alone 36.7
  HSA secondary structure: Random Coil: 37.0%
[4]; HSA alone 41.6
  HSA secondary structure: α-Helix: 43.2%
